Test results from US20160214958A1, “COMPOUNDS AND USE FOR TREATING CANCER” (GLIONOVA AB, priority 2013, published 2016).

Tests used:
[1] = tested on: U3013MG GSCs injected into brain ventricle; assay: Zebrafish xenograft in vivo efficacy assay
Method: A xenotransplantation model for GBM in zebrafish was developed to test the capacity of the 17 hits to prevent tumor formation in vivo. Three thousand U3013MG GSCs labeled with cell tracker red were injected intracranially into the ventricle of 48-52 hpf larvae. Each of the 17 hits were administered to the egg water at the lowest effective in vitro cytotoxic concentration identified and tumor development assessed 10 days later. This assay allowed rapid evaluation of the compounds in an in vivo setup, features such as the acute/chronic toxicity effect of the compounds on zebrafish and the transplanted cells, transplanted cell proliferation and migration of cells into brain parenchyma, compounds penetrance into the zebrafish tissue were all parallely evaluated. […] Cardiovascular toxicity was assessed using a recently established model based on frequency spectral analysis of heart beating in ex-vivo adult zebrafish hearts (Kitambi et al., (2012) BMC Physiol. 12, 3).
The zebrafish xenografts glioblastoma model was developed for quantitative analyses on the efficacy of S10 to inhibit tumor development and for quantification of infiltration of cells in the host brain. […] The size of the tumor was determined by quantification of the area, fluorescence level and infiltration by measuring the average distance of infiltrating cells from the original tumor mass. […]

Caspase-3 and Caspase-7 = Caspase-3 and Caspase-7 enzymatic activity in GSC; format: cell-based, human; details: 5-30 μM, 2 to 600 minutes
Method: A distinctive feature of apoptosis is the rapid loss of ATP associated with decoupling of the respiratory chain. Death of GSCs was therefore examined in the presence of the apoptosis inhibitor Q-VAD. […] However, Q-VAD only modestly rescued S10 treated cells from death at 3 and 7 hrs. […] Caspase-3 and Caspase-7 enzymatic activity was measured at 2, 15, 30, 60, 120, 120, 240, 360 and 600 minutes after addition of S10 at increasing concentrations from 5-30 μM. […] The rapid depletion of ATP by S10 led us to therefore examine the mitochondria. The accumulation of tetramethylrhodamine ethyl ester (TMRE) in mitochondria and […] is driven by their membrane potential. TMRE incorporation in mitochondria was largely unaffected by S10. […]
For measuring cell viability, cytotoxicity and apoptosis in GSC/fibroblast/mGlia cells were grown in 384-well microtiter plates using procedure described above. […] Cell viability, cytotoxcity and apoptosis were measured using CellTiter-Glo® Luminescent Cell Viability Assay (Promega), CytoTox-Glo Cytotoxicity Assay and […], according to manufacturer's instructions. […] Luminescence was measured using a Victor3 FA (Perkin Elmer) microtiterplate reader and the level of released Caspase 3/7 quantified relative to control using GraphPad Prism (v6.02) software.

In the case of `OC(c1cc(-c2ccc(Cl)cc2)nc2ccccc12)C1CCCCN1` (racemic) [Compound S10, (2-(4-chlorophenyl)quinolin-4-yl)(piperidin-2-yl)methanol], the tumor growth ([1]; 15 μM applied to the aquarium water for 10 days) was “marked attenuation of tumor growth”, the tumor size ([1]; lowest effective in vitro cytotoxic concentration in egg water, assessed 10 days later) was “markedly reduced tumor size” and the “caspase activity relative to DMSO control” value (Caspase-3 and Caspase-7) was “no effect on caspase activity”.
